In ChEMBL document CHEMBL6134853, “Design, Synthesis, and Biological Evaluation of Pyrrolo[1,2-a]quinoxalin-4(5H)-one Derivatives as Potent and Orally Available Noncovalent Bruton's Tyrosine Kinase (BTK) Inhibitors” (J Med Chem, 2025):
Activity calls are given as the source filed them.

What was measured:
[1] = Toxicity in BALB/c mouse xenografted with human U-937 cells assessed as inflammatory infiltration in liver at 50 to 100 mg/kg, po administered once a day for 14 days by H and E staining based analysis; assay type: organism-based; conditions: in vivo, 336 h, dose 50-100 mg/kg, time 14 day
U-937 [2] = experiment: Antitumor activity against human U-937 cells xenografted in po dosed BALB/c mouse assessed as tumor growth inhibition administered once a day for 14 days; assay type: functional, organism-based; conditions: dose 50-100 mg/kg, time 14.0 day
U-937 [3] = experiment: Antitumor activity against human U-937 cells xenografted in BALB/c mouse assessed as reduction in Ki67 expression in tumor at 50 mg/kg, po administered once a day for 14 days by immunohistochemical analysis; assay type: functional, organism-based; conditions: time 14.0 day
[4] = Toxicity in BALB/c mouse xenografted with human U-937 cells assessed as parenchymal injury in spleen at 50 to 100 mg/kg, po administered once a day for 14 days by H and E staining based analysis; assay type: organism-based; conditions: in vivo, 336 h, dose 50-100 mg/kg, time 14 day
[5] = Toxicity in BALB/c mouse xenografted with human U-937 cells assessed as parenchymal injury in lung at 50 to 100 mg/kg, po administered once a day for 14 days by H and E staining based analysis; assay type: organism-based; conditions: in vivo, 336 h, dose 50-100 mg/kg, time 14 day
[6] = Tmax in male Sprague-Dawley rat at 10 mg/kg, po measured up to 5 hrs by LC-MS/MS analysis; assay type: ADME, organism-based; conditions: in vivo
[7] = Toxicity in BALB/c mouse xenografted with human U-937 cells assessed as change in body weight at 50 to 100 mg/kg, po administered once a day for 14 days; assay type: organism-based; conditions: in vivo, 336 h, dose 50-100 mg/kg, time 14 day
[8] = Toxicity in BALB/c mouse xenografted with human U-937 cells assessed as inflammatory infiltration in heart at 50 to 100 mg/kg, po administered once a day for 14 days by H and E staining based analysis; assay type: organism-based; conditions: in vivo, 336 h, dose 50-100 mg/kg, time 14 day
[9] = biological target: T1, Tyrosine-protein kinase BTK (Homo sapiens, UniProt Q06187); experiment: Inhibition of BTK phosphorylation at Y223 residue in anti-IgM induced human U-937 cells preincubated with compound for 4 hrs followed by anti-IgM induction and measured after 15 mins by Western blot analysis; assay type: cell-based; conditions: dose <= 1.0 µM, time 255.0 min
U-937 [10] = experiment: Induction of apoptosis in human U-937 cells incubated for 2 days by Annexin V/PI staining based flow cytometry analysis; assay type: functional, cell-based; conditions: dose 1-10 µM, time 2.0 day
[11] = MRT (0 to 5 hrs) in male Sprague-Dawley rat at 10 mg/kg, po measured up to 5 hrs by LC-MS/MS analysis; assay type: ADME, organism-based; conditions: in vivo
[12] = biological target: T2, Tyrosine-protein kinase Tec (Homo sapiens) (UniProt P42680); experiment: Inhibition of TEC (unknown origin) at 100 nM relative to control
T2 sequence (whole entry): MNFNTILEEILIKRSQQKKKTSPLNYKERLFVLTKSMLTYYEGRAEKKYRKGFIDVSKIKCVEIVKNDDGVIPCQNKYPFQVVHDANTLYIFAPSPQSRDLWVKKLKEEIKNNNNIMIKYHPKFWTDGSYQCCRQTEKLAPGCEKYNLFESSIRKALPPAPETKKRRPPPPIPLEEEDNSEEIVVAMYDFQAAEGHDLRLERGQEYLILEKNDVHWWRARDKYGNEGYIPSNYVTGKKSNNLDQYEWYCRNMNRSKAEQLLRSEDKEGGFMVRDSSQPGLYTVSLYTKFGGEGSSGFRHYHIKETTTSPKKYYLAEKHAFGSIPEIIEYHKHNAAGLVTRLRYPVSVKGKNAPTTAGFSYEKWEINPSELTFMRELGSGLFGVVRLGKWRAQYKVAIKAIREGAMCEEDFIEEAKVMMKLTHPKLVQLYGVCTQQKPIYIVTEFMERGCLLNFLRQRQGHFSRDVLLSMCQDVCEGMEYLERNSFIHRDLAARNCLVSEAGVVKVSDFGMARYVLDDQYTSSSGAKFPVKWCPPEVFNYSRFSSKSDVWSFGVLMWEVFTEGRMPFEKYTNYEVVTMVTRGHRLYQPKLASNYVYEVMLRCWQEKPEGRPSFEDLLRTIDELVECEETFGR

[13] = AUC (0 to 5 hrs) in male Sprague-Dawley rat at 10 mg/kg, po measured up to 5 hrs by LC-MS/MS analysis; assay type: ADME, organism-based; conditions: in vivo
[14] = Toxicity in BALB/c mouse xenografted with human U-937 cells assessed as inflammatory infiltration in kidney at 50 to 100 mg/kg, po administered once a day for 14 days by H and E staining based analysis; assay type: organism-based; conditions: in vivo, 336 h, dose 50-100 mg/kg, time 14 day
[15] = biological target: T1, Tyrosine-protein kinase BTK; experiment: Inhibition of BTK phosphorylation at Y223 residue in anti-IgM induced human Ramos cells preincubated with compound for 4 hrs followed by anti-IgM induction and measured after 15 mins by Western blot analysis; assay type: cell-based; conditions: dose <= 1.0 µM, time 255.0 min
[16] = Toxicity in BALB/c mouse xenografted with human U-937 cells assessed as parenchymal injury in liver at 50 to 100 mg/kg, po administered once a day for 14 days by H and E staining based analysis; assay type: organism-based; conditions: in vivo, 336 h, dose 50-100 mg/kg, time 14 day

T1 sequence (Q06187 whole entry): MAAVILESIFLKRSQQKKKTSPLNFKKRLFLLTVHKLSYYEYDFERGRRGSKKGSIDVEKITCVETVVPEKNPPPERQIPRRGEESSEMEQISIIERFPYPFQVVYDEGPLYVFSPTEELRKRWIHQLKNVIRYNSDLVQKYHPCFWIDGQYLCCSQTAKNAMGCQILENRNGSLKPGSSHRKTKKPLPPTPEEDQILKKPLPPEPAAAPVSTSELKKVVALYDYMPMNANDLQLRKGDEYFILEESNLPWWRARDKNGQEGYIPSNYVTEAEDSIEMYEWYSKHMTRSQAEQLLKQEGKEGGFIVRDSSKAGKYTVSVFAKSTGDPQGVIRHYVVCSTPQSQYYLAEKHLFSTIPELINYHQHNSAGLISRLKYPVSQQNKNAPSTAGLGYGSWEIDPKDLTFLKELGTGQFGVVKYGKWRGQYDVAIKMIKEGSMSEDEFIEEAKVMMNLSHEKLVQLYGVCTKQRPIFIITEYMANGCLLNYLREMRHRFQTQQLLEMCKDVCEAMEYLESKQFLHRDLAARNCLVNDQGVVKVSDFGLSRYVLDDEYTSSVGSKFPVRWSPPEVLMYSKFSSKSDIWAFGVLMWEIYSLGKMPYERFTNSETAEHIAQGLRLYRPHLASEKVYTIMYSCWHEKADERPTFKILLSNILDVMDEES

CC(C)(O)c1ccc2c(c1)[nH]c(=O)c1ccc(-c3cccc(-n4c(=O)[nH]c5c(F)cccc5c4=O)c3F)n12
88.8 min: MRT last at 5 h [11]
Non-toxic: Activity [1] | Activity [4] | Activity [5] | Activity [7] | Activity [8] | Activity [14] | Activity [16]
116 ng·h/mL: AUC(0-t) at 5 h [13]
30 min: Tmax [6]
active: Activity (U-937 [2]) Dose-dependent-effect | Activity (U-937 [3]) | inhibition [9] Dose-dependent-effect | Activity (U-937 [10]) Dose-dependent-effect | inhibition [12] | inhibition [15] Dose-dependent-effect
